According to patent US11685766B2, “14-3-3 targeting peptides for cancer treatment” (Creighton University, priority 2019, dated 2023):
Where “and” joins values, the source holds several entries; their conditions need not be identical. Identical values can stand only once. Like-named read-outs stand apart in the source and are kept apart here. Blank lines part the entries; values can stand above or below the compound they belong to. Peptide text beside a SMILES is read from it.

Experiments:
SCC12B.2 cells [1] = type: cell-based, human
Method: Human skin cancer cell lines (SCC12B.2, SCC13, SRB12) were maintained in Dulbecco's modified Eagle's medium (DMEM) (Invitrogen, Carlsbad, Calif., USA) supplemented with 1% penicillin (10 000 U/ml)-streptomycin (10 000 μg/ml) (PenStrep) (Invitrogen) and 10% fetal bovine serum (Gemini Bio-Products, Sacramento, Calif., USA) at 37° C. and 5% CO2. Normal human epidermal keratinocytes (nHEK) (Thermo Scientific, Waltham, Mass., USA) isolated from neonatal foreskin were cultured in EpiLife medium (Invitrogen) supplemented with human keratinocyte growth supplement (Invitrogen) and 1% PenStrep (Invitrogen). Cells were transfected with control pcDNA or pcDNA3.1-HA-14-3-3ε (Addgene plasmid #48797; http://n2t.net/addgene:48797; RRID:Addgene_48797) using Lipofectamine/Plus reagents (Life Technologies, Carlsbad, Calif., USA) or with siRNA targeting 14-3-3ε (Dharmacon, Lafayette, Colo., USA), 14-3-3γ (Dharmacon), 14-3-3ζ, (Dharmacon), Survivin (Cell Signaling, Danvers, Mass., USA), Akt (Dharmacon) or control siRNA (Santa Cruz Biotechnology, Dallas, Tex., USA) using siQuest transfection reagents (Mirus Bio, Madison, Wis., USA) or treated with Akt inhibitor GSK690693 (Tocris Bioscience, Bristol, United Kingdom) or cell cycle inhibitor 5-Fluorouracil (5-FU) (Thermo Fisher) resuspended in DMSO.
To determine the half maximal inhibitory concentration (IC50) for ES1P2 in SCC12B.2 and nHEK cells, cells were plated in a 96-well plate at a density of 6×10^3 cells/well. Twenty-four hours after plating, cells were treated with increasing concentrations of ES1P2 (0-75 μM) in Opti MEM medium supplemented with reduced serum (Invitrogen) for 4 consecutive days. ES1P2 peptide was resuspended fresh, daily in 25 mM Tris buffer (pH 7.5). Neutral Red Cell Viability assays were performed, where absorbance was measured using a Cytation 5 multi-mode plate reader (BioTek). The experiment was repeated three separate times with 4 replicate wells per experiment to obtain an average IC50 value.
Carcinoma human cell lines (SCC12B.2 and SCC13) were maintained in Dulbecco's modified Eagle's medium (DMEM) (Invitrogen, Carlsbad, Calif., USA) supplemented with 1% penicillin (10 000 U/ml)-streptomycin (10 000 μg/ml) (PenStrep) (Invitrogen) and 10% fetal bovine serum (Gemini Bio-Products, Sacramento, Calif., USA) at 37° C. and 5% CO2. Primary normal human epidermal keratinocytes (nHEK) (Thermo Fisher Scientific, Waltham, Mass., USA) isolated from neonatal foreskin were maintained in EpiLife medium (Invitrogen) supplemented with human keratinocyte growth supplement (HKGS) and 1% PenStrep. nHEK cells were not passaged more than twice before experiments. Cells were treated with CDC25A inhibitor NSC663284 (Tocris Bioscience, Bristol, United Kingdom) suspended in DMSO, transfected with wild type CDC25A or control plasmid using Lipofectamine/Plus transfection reagents (Life Technologies, Carlsbad, Calif., USA) or transfected with siRNA targeting 14-3-3 ε or control siRNA (Santa Cruz Biotechnology, Dallas, Tex., USA) using siQuest transfection reagents (Mirus Bio, Madison, Wis., USA).
To determine the half maximal inhibitory concentration (IC50) for pS and pT in SCC12B.2 cells, cells were plated in a 96-well plate at a density of 6×10^3 cells/well. […] Neutral Red Cell Viability assays were performed, where absorbance was measured using a Cytation 5 multi-mode plate reader (BioTek). […]

SCC12B.2 cells [2] = assay: Caspase-3/7 Glo assay (apoptosis); type: cell-based, human; settings: ES1P2 20 μM; pS 30 μM; pT 20 μM, 24 hours; vs vehicle
Method: Apoptosis was assessed using a Caspase-3/7 Glo assay (Promega Corporation, Madison, Wis., USA) in a 96-well white-bottom plate (BRANDplates, Wertheim, Germany) according to the manufacturer's instructions. Cells were seeded at a density of 8×10^3 cells/well and incubated overnight before treatments or transfections. Luminescence was read using a Cytation 5 multi-mode plate reader (BioTek Instruments, Winooski, Vt., USA).
Apoptosis was assessed using a Caspase-3/7 Glo assay (Promega) in a 96-well white-bottom plate (BRANDplates, Wertheim, Germany). Cells were seeded at a density of 8×10^3 cells/well and Caspase-3/7 glo was performed 24 hours post-treatment according to the manufacturer's instructions and read using a Cytation 5 multi-mode plate reader (BioTek, Instruments, Winooski, Vt., USA).

IC50 (SCC12B.2 cells [1]): 20.6 µM
SMILES: NCCCC[C@H](NC(=O)[C@H](Cc1c[nH]c2ccccc12)NC(=O)[C@H](Cc1ccc(O)cc1)NC(=O)[C@@H](N)Cc1c[nH]c2ccccc12)C(N)=O [ES1P2, Trp-Tyr-Trp-Lys-NH2] (H-WYWK-NH2)
SCC cells alive (SCC12B.2 cells [1]; 20 μM, alone, FIG. 1D): 62 % alive
apoptosis of SCC cells (Caspase-3/7) (SCC12B.2 cells [2]): increasing apoptosis to a statistically significant degree

SMILES: CSCC[C@H](NC(=O)[C@H](CCCNC(=N)N)NC(=O)[C@@H]1CCCN1C(=O)[C@H](C)NC(=O)[C@H](COP(=O)(O)O)NC(=O)[C@H](CC(N)=O)NC(=O)[C@H](CCC(N)=O)NC(=O)[C@H](CCCNC(=N)N)NC(=O)[C@H](CCC(N)=O)NC(=O)[C@@H](NC(C)=O)[C@@H](C)O)C(=O)N[C@@H](CC(C)C)C(=O)N[C@@H](CO)C(=O)N[C@@H](CO)C(=O)N[C@@H](CC(N)=O)C(N)=O [pS, Ac-Thr-Gln-Arg-Gln-Asn-Ser-(PO3^2−)-Ala-Pro-Arg-Met-Leu-Ser-Ser-Asn-NH2] (HELM PEPTIDE1{[ac].T.Q.R.Q.N.[O=C([C@H](COP(=O)(O)O)N[*:1])[*:2]].A.P.R.M.L.S.S.N.[am]}$$$$V2.0)
IC50 (SCC12B.2 cells [1]): 29 µM
apoptosis of SCC cells (Caspase-3/7) (SCC12B.2 cells [2]): increased apoptosis

SMILES: CC(=O)N[C@@H](CCCNC(=N)N)C(=O)N[C@H](C(=O)N[C@@H](CCCCN)C(=O)N[C@@H](CO)C(=O)N[C@@H](CCCNC(=N)N)C(=O)N[C@H](C(=O)N[C@@H](Cc1c[nH]c2ccccc12)C(=O)N[C@@H](C)C(=O)NCC(=O)N[C@@H](CCC(=O)O)C(=O)N[C@@H](CCCCN)C(=O)N[C@@H](CO)C(=O)N[C@@H](CCCCN)C(=O)N[C@@H](CCCNC(=N)N)C(N)=O)[C@@H](C)OP(=O)(O)O)[C@@H](C)O [pT, Ac-Arg-Thr-Lys-Ser-Arg-Thr(PO3^2−)-Trp-Ala-Gly-Glu-Lys-Ser-Lys-Arg-NH2] (HELM PEPTIDE1{[ac].R.T.K.S.R.[C[C@@H](OP(=O)(O)O)[C@H](N[*:1])C(=O)[*:2]].W.A.G.E.K.S.K.R.[am]}$$$$V2.0)
IC50 (SCC12B.2 cells [1]; SCC12B.2 cells, Neutral Red, treated 4 consecutive days, 0-75 μM, read-out: IC50 in SCC cells (cell viability dose response)): 22.1 µM and 22.6 µM
apoptosis of SCC cells (Caspase-3/7) (SCC12B.2 cells [2]): increased apoptosis
